These results are taken from article PMC12454639, “Direct disassembly of α-syn preformed fibrils into α-syn monomers by an all-D-peptide” (NPJ Parkinson's Disease, 2025).

Common to all, as to format: biochemical
The test system of assay [1] is small α-syn PFF. Description: Western blot of small α-syn PFF. The settings on record: 200 nM PFF with 250, 500, 750, 1000 nM SVD-1a, 72 h, 37 °C; antibody Syn211. How it is done: Samples of 200 nM small α-syn PFF or α-syn monomer were incubated with 0, 250, 500, 750 and 1000 nM SVD-1a for 72 h at 37 °C in PBS pH 7.4 with 0.05% sodium azide. Samples were then resolved via SDS–PAGE on 12% TGX gels (Bio-Rad, Hercules, USA) using the Mini-PROTEAN Tetra Cell (Bio-Rad, Hercules, USA). Proteins were transferred to a PVDF membrane (0.2 µm pore size) (Trans-Blot Turbo Mini PVDF Transfer Pack, Bio-Rad, Hercules, USA) at 25 V, 1.3 A for 7 min. Blocking of the membrane was carried out with 2% nonfat dried milk powder in TBS + 0.05% Tween 20 for 1 h at room temperature. Anti-α-synuclein antibody Syn211 (RRID:AB_628318, Santa Cruz Biotechnology, Dallas, TX, USA) was used as primary antibody at a concentration of 1 µg/ml in TBS-T for 1 h at RT. As a secondary antibody, an HRP-coupled goat anti-mouse IgG (RRID:AB_228307, Thermo Fisher Scientific, Waltham, MA, USA) was used at 0.2 µg/ml in TBS-T for 1 h at RT. […]
Supplementary Figure 11: Western blot of small α-syn PFF samples incubated with SVD-1a. […] A PFF and monomer sample that were incubated without SVD-1a served as controls. α-Syn was detected with Syn211. A prominent monomer band was present between the 15 kDa- and 20 kDa marker bands, detected with shorter exposure time (left). […] In the upper part of the blot, above the marker range, PFFs were detected using longer exposure time due to weaker signal (right).
Background: In western blotting, separated proteins are transferred to a membrane and probed.

In assay [2] the test system is α-synuclein monomer seeded with small α-syn PFF. Description: CD spectroscopy of the seeded aggregation assay. The conditions noted are these: 30 µM SVD-1a, 500 nM PFF, 15 µM α-syn monomer, PBS pH 7.4, 37 °C, 24 h. How it is done:
Far-UV circular dichroism (CD) data were collected using a Jasco J-1100 spectropolarimeter (Jasco, GE). 350 µl samples were pooled and loaded into a high precision quartz cuvette with a path length of 1 mm (Hellma group, GE). A scan speed of 20 nm/min with five accumulations per sample was performed using far UV wavelengths from 260 to 190 nm. Baseline was corrected by subtracting measurements of the reference sample only.
Supplementary Fig. 13: Analysis of the seeded aggregation assay in the presence and absence of SVD-1a using circular dichroism (CD) spectroscopy. Small α-syn PFF (500 nM) were incubated in PBS (pH 7.4) at 37 °C under quiescent conditions for 24 hours, either alone or in the presence of 15 µM α-synuclein monomer and/or 30 µM SVD-1a. For each condition and time point, three replicates (each 120 µl) were pooled and analyzed by CD spectroscopy at 0, 2, 8, and 24 hours. Far-UV ellipticity was measured in a quartz cuvette (path length = 10 mm) using a J-1100 CD spectrometer (Jasco, GE). […] (D) Co-incubation of 500 nM α-synuclein PFFs with 15 µM α-synuclein monomer induced a structural transition towards β-sheet formation, as reflected in the CD spectrum (referenced to spectrum in (A)).

Assay [3] relates to α-syn monomer. Kind of assay: AFM of de novo aggregation endpoint samples. The conditions noted are these: 10 µM α-syn + 20 µM SVD-1a. How it is done:
Fig. 7 De novo aggregation analysis of α-syn in the presence and absence of SVD-1a. A De novo ThT assay of 10 µM α-syn with and without 20 µM SVD-1a. ThT fluorescence progression was measured in a 96-well non-binding half-area plate (Corning, USA) with a FLUOStar plate reader (BMG labtech, GE) at λex = 448 nm and λem = 482 nm with 300 rpm continuous orbital shaking between reads. For induction of aggregation, one borosilicate bead per well was added (d = 3 mm, Hilgenberg, GE). Data are shown as mean values with ±SD (n = 5). B CD secondary structure analysis of de novo aggregation samples. Samples were incubated as described in (A) without added ThT (n = 3) and subsequently pooled for CD analysis. Far-UV ellipticity of the samples was measured in a quartz cuvette (l = 10 mm) in a J-1100 CD-spectrometer (Jasco, GE). In addition to (A), a sample with 20 µM SVD-1a alone was incubated under identical conditions and later used as a reference for the sample with α-syn and SVD-1a. For this sample (α-syn + SVD-1a (after incubation)), the SVD-1a reference subtracted CD spectrum is shown. […] D α-Syn in the flow through (MWCO < 100 kDa) was quantified using an α-syn specific ELISA (BioLegend, Human α-Synuclein (Colorimetric), 448607, n = 3). E Retentate and flow-through samples were analyzed using SDS–PAGE with silver staining. […]

Structures are written as SMILES. Square brackets hold non-standard residues; d marks the D form. Peptide text beside a SMILES is read from it.

On to `CC[C@@H](C)[C@@H](NC(=O)[C@@H](Cc1c[nH]cn1)NC(=O)[C@@H](CCC(=O)O)NC(=O)[C@@H](CCC(N)=O)NC(=O)[C@@H](Cc1c[nH]c2ccccc12)NC(=O)[C@@H](Cc1ccc(O)cc1)NC(=O)[C@H](NC(=O)[C@@H](CCC(=O)O)NC(=O)[C@@H](Cc1c[nH]cn1)NC(=O)[C@H](NC(=O)[C@H]1CCCN1C(=O)[C@@H](CC(C)C)NC(=O)[C@H](N)CCCNC(=N)N)[C@H](C)O)[C@H](C)O)C(=O)N[C@H](Cc1c[nH]c2ccccc12)C(=O)N[C@H](Cc1c[nH]cn1)C(=O)N[C@H](C)C(=O)N[C@H](CCCNC(=N)N)C(=O)N[C@H](CCCNC(=N)N)C(=O)N[C@H](CCCNC(=N)N)C(=O)N[C@H](CCCNC(=N)N)C(=O)N[C@H](CCCNC(=N)N)C(N)=O` [SVD-1a] (H-[dR][dL][dP][dT][dH][dE][dT][dY][dW][dQ][dE][dH][dI][dW][dH][dA][dR][dR][dR][dR][dR]-NH2), for which, in assay [1], the “intensity of higher MW α-syn bands” value is “progressively reduced in presence of higher SVD-1a concentrations”. For the same compound, in assay [2], the “α-syn secondary structure under seeded conditions” value is “stabilized the α-synuclein monomer in its random coil conformation throughout the incubation period”. Also, the “fibrils in endpoint samples (AFM)” value in assay [3] is listed as “clearly do not contain any fibrils”.
